Assay results taken from US8426463B2, “[((1R,2S,5R)-2-isopropyl-5-methyl-cyclohexanecarbonyl)-amino]-acetic acid isopropyl ester and related compounds and their use in therapy” (priority 2011, dated 2013).

Legend:
[1] = test system: Salmonella typhimurium tester strain TA1535; experiment: Ames test in TA1535 with and without S9-mix (Notox)
cough = experiment: Study 5: ODT in a smoker with chili pepper induced coughing fit; format: in vivo, human; conditions: two ODT tablets (2.5 mg each); one subject
Experimental: A venture capitalist lived a stress-filled life and smoked two packs of cigarettes per day. […] They tried the ODT containing 2.5 mg of Gly-O-iPr and said that it felt great, but they were afraid that if they used it, they would smoke more. Later that evening, they went to a banquet of Northern Chinese cuisine and they started coughing when they ate a piece of fish that was heavily spiced with chili peppers. Everyone at the dinner table was alarmed by their coughing fit which was quite intense and made their face turn bright red.

[2] = test system: philtrum skin (keratinized stratified epithelium); experiment: Philtrum assay: duration of cooling on keratinized stratified epithelium; format: in vivo, human; conditions: applied to the philtrum skin at 5 mg/mL in Aquaphor ointment
Text: Bioassay on Keratinized Stratified Epithelium: Philtrum Assay
The philtrum is the midline groove above the border of the upper lip. The site of drug testing was the skin above the upper lip (above the vermilion border of the lips), on the philtrum, lateral to the philtrum until the nasolabial folds, and sometimes on the lower nostrils (subnasale). This part of the face is known to be densely innervated with cool/cold receptors, second only to the surfaces of the eyeball and anogenitalia. It is also known from the scientific literature that the area around the lips has a high density of “cold spots” (see, e.g., Dhaka et al., “Visualizing cold spots: TRPM8-expressing sensory neurons and their projections”, J. Neuroscience, Vol. 28, pp. 566-575, 2008).
To test for anti-nociceptive activity, the test substance is first dissolved (5 mg/mL) in an ointment (Aquaphor®, which is 41% petrolatum, and the rest mineral oil, ceresin and lanolin alcohol) and singly applied (40 to 70 mg) onto the philtrum skin surface using a plastic stick.
At this locus, cool and cold sensations in the skin may be experienced and rated for time of onset and intensity. The intensity of the subjective skin sensation is rated as 0, 1, 2 or 3 with: 0 as no change; 1 as slight coolness, or cold; 2 as clear-cut signal of coolness or cold; and 3 as robust cooling or cold. The intervals for recording are 5 to 10 minutes, until two successive zeroes are obtained. The onset of drug action is taken as the time to reach 2 units of coolness intensity, and offset of drug action is the time when coolness intensity drops below 2, after previously surpassing 2 units. The duration of cooling action is defined as the offset time minus the onset time.

[3] = test system: oropharyngeal surface (non-keratinized stratified epithelium); experiment: Oropharyngeal surface bioassay: ODT followed by chili pepper sauce challenge; format: in vivo, human; set-up: key to Non-Keratinized Stratified Epithelia (NKSE) Oropharyngeal Surface, attenuation of chili pepper sauce irritation: If there was no attenuation of the challenge stimuli, the score was (0); if there was partial inhibition, the score was (+); if there was complete attenuation of the irritant signal, the score was (++); conditions: for sensation on the oropharyngeal surface / effect on the response to the chili pepper sauce: ODT; for Non-Keratinized Stratified Epithelia (NKSE) Oropharyngeal Surface, attenuation of chili pepper sauce irritation: ODT containing 2.5 to 3 mg of active ingredient, chili pepper sauce 45 minutes later; for effect on the response to the chili pepper sauce: same test conditions
Text: Bioassay on Non-Keratinized Stratified Epithelium: Oropharyngeal Surface
A number of irritants have been evaluated for evoking the cough sensation as a measure of pharygeal sensitivity (see, e.g., Morice et al., 2001, “Cough Challenge in the Assessment of Cough Reflex”, Brit. J. Clin. Pharmacol., Vol. 52, pp. 365-375). Usually, citric acid or capsaicin is delivered via the inhalation route to volunteers and the number of coughs counted. […] The chili pepper sauce mixes with the saliva and the saliva is then deposited on the posterior oropharynx. The chili pepper sauce used was Yank Sing® Chili Pepper Sauce (YS Gourmet Productions, Inc., PO Box 26189, San Francisco, Calif. 94126) and is a well-known condiment for use with dim sum (Chinese tea lunch). The sensations associated with the chili pepper sauce are located in the posterior wall of the mouth and are clearly recognized by the test subject and associated with a desire to clear the throat.
The ODT was formulated by taking an ingredient, dissolving it in absolute ethanol, and then adding 10% by weight of maltitol, and 90% by weight of mannitol, and then an equal volume of distilled water. The mixture was the stirred with a glass rod, and dispensed onto a piece of wax paper with a disposable plastic pipette. The individual dried tablets weighed on average 150 mg each and when on the dorsal surface of the tongue, dissolved completely in saliva and coated the oropharyngeal surface. On average, the amount of the test substance was 2.5 to 3 mg per tablet.
To test for anti-nociceptive activity, the ODT containing the test compound was first administered onto the dorsal surface of the tongue; 45 to 50 minutes later, the chili-pepper sauce challenge is administered. At this time, the coolness sensations from the test compound have dissipated and the test is to determine if an anti-nociceptive effect remains. Results were reported as follow: If there was no attenuation of the challenge stimuli, the score was (0), if there was partial inhibition, the score was (+), and if there was complete attenuation of the irritant signal, the score was (++). In the presence of an ODT containing an active ingredient that results in a (++) score, the irritative signals were completely absent, yet the salty taste used in the soy sauce of the condiment could be readily identified and tasted.
In one formulation (used in the biological evaluation studies described herein), orally disintegrating tablets (ODTs) were prepared using an 80:20 by weight mixture of mannitol-maltitol (Pearlitol™ and Sweetpearl™, Roquette Freres, France). This carrier has the advantage of completely masking bitter tastes that might be present in some of the test compounds. The test compound was first mixed with the mannitol-maltitol using a mortar and pestle, and then suspended in an equal volume of 10:90 v/v ethanol-distilled water. A disposable pipette was then used to aliquot the liquid mixture onto a sheet of wax paper and dried at room temperature. The dried tablets were then weighed and sorted. It was found by experiment that an 80 mg tablet containing 2 to 3 mg of test compound dissolved within 15 seconds when placed on the dorsal surface of the tongue and provided a good test dose.

[4] = test system: pharyngeal and esophageal receptors; experiment: Cooling sensations in the chest after Gly-O-iPr with or without icilin; set-up: species or system human; conditions: in vivo
Text: The cooling sensations in the chest that result from the Gly-O-iPr/icilin combination may provide symptomatic relief of discomfort in the airways (larynx, trachea, bronchi) in conditions such as asthma and COPD.

allergic conjunctivitis = experiment: Study 3: eye wipes in a subject with allergic conjunctivitis; format: in vivo, human
Text: A laboratory scientist suffered from seasonal allergic conjunctivitis. This condition was severely aggravated when […] started doing experiments with laboratory animals (rats and mice) and […] became sensitized to the associated allergens. The conjunctivitis was not relieved by oral or topical eye drops containing antihistamines and the subject was reluctant to consider the use of anti-inflammatory steroid ointments. Upon examination, their eyes were blood-shot and watery and they kept rubbing their eyelids with their fingers even though they knew this action may further aggravate the itch and discomfort. They volunteered to try eye wipes containing 1.0 mg/mL of Gly-O-iPr. The relief of itch and discomfort was obtained within 5 minutes and lasted for at least four hours.

[5] = test system: dry, scratchy throat with cough; experiment: Study 4: chewing gum and ODT in a subject with scratchy throat and cough; format: in vivo, human
Text: A person's child moved away from their neighborhood to go to college and they became responsible for taking care of their two cats. Initially everything was all right, but then they became sensitized to the litter box dust generated when they were cleaning after the cats. They developed a dry, scratchy throat with cough, and this was severely aggravated by their seasonal allergy to grass pollen, so that they were constantly clearing their throat. […] After about two weeks of coughing and discomfort, they agreed to try Gly-O-iPr, first spread as 3 mg per wafer of Wrigley spearmint chewing gum, and then later formulated in an orally disintegrating tablet at 3 mg per unit dose. The medicated chewing gum and the ODT both provided relief within five minutes after administration. The sense of discomfort in the throat was attenuated and the effect lasted for about four hours and the dose could be repeated with the same beneficial effect. This individual preferred the ODT method of delivery as they considered this more efficient than chewing gum. After using the ODT containing Gly-O-iPr for ten days on an “as-needed basis” […] cough and scratchy throat disappeared and they are now well.

[6] = test system: ocular surface (non-keratinized stratified epithelium); experiment: Ocular surface bioassay: duration of cooling after towelette wipe on closed eyelids; format: in vivo, human; conditions: for Non-Keratinized Stratified Epithelia (NKSE) Ocular Surface (min), duration of cooling: applied to the closed eyelids using a towellette at 1 mg/mL in 5%-95% v/v ethanol-distilled water; for rank order of duration of action of ocular wipes: six subjects, randomized double-blind study, three trials per wipe
Experimental: Bioassay on Non-Keratinized Stratified Epithelium: Ocular Surface
For testing on the ocular surface, a towelette containing the test compound was used as the delivery unit. The test compound was dissolved first in absolute ethanol and then distilled water was added to form a standard 1 mg/mL solution in a 3 to 5% by weight ethanol-water solution. Three mL of the test solution was then added to a 0.4 g cotton rectangle (50 mm×60 mm) (CS-being, Daisan Cotton, Japan) and individually sealed with a vacuum apparatus (Foodsaver®, Jarden Corp.). Samples were stored in a freezer or refrigerator and thawed to room temperature before use. Wiping with the cotton pad delivers 40 to 45 μL of liquid composition to the closed eyelids (˜20 to 22 μL per eye surface). Thus, if the concentration of the test compound was 1 mg/mL, the dose delivered to both eyes is a total of ˜40 to 42 μg, or ˜20 μg per eye. The presence or absence of cooling sensations felt on the ocular surface was noted as being present or absent at 5 to 10 minute intervals until no coolness was noticeable in two successive test intervals. Only the duration of cooling on the ocular surface was recorded, without an attempt to quantify the intensity of the sensation.

[7] = test system: dorsal surface of the tongue; conditions: 6 subjects; filter paper on dorsal surface of tongue, 30 seconds; cited from earlier work
TA1535 strain = conditions: MSDS Number 2984; cited from earlier work
[8] = 3 mg per chewing gum wafer or 3 mg ODT, one subject

Structure (SMILES)	Keratinized Stratified Epithelia Philtrum Skin (min), duration of cooling [2] [min]	sensation on the oropharyngeal surface [3]	Non-Keratinized Stratified Epithelia (NKSE) Oropharyngeal Surface, attenuation of chili pepper sauce irritation [3]	effect on the response to the chili pepper sauce [3]	Non-Keratinized Stratified Epithelia (NKSE) Ocular Surface (min), duration of cooling [6] [min]	rank order of duration of action of ocular wipes [6]	further results
CC(C)OC(=O)CNC(=O)[C@@H]1C[C@H](C)CC[C@H]1C(C)C [Gly-O-iPr, [((1R,2S,5R)-2-isopropyl-5-methyl-cyclohexanecarbonyl)-amino]-acetic acid isopropyl ester]	27	refreshing cooling sensation	++	blocked the response to the chili pepper sauce	300	Gly-O-iPr>>Gly-O-nPr>Gly-O-Et	mutagenic activity, conclusion ([1]; TA1535, 3 to 5000 μg/plate, absence and presence of S9-mix): not mutagenic; bacterial background lawn ([1]; any of the concentrations tested (3 to 5000 μg/plate)): not reduced; precipitation on the plates ([1]; top dose of 5000 μg/plate, dissolved in DMSO): did not precipitate; effect on coughing fit (cough): the cough stopped within a few minutes; cooling sensations in the chest [4]: less effective; time to relief of itch and discomfort (allergic conjunctivitis; eye wipes containing 1.0 mg/mL, one subject): ≤ 5 min; over-all itchiness and redness (allergic conjunctivitis; wipes as needed for three days): reduced significantly; duration of attenuated throat discomfort [5, 8]: about four; time to relief after administration [5, 8]: five; cough and scratchy throat ([5]; ODT as needed for ten days): disappeared; duration of cooling effect on the ocular surface, on average ([6]; 1 mg/mL): 5 h; duration of cooling on the ocular surface ([6]; test concentration increased to 1.5 mg/mL): about 6.5 hours
CC(C)[C@@H]1CC[C@@H](C)C[C@H]1O [(−)-menthol, (1R,2S,5R)-2-isopropyl-5-methyl-cyclohexanol]	–	–	–	–	–	–	average Threshold for cooling on the tongue [7]: 0.25 µg
CCCCOC(=O)CNC(=O)[C@@H]1C[C@H](C)CC[C@H]1C(C)C [Gly-O-nBu, [((1R,2S,5R)-2-isopropyl-5-methyl-cyclohexanecarbonyl)-amino]-acetic acid n-butyl ester]	38	–	0	–	35	–	–
CCCOC(=O)CNC(=O)[C@@H]1C[C@H](C)CC[C@H]1C(C)C [Gly-O-nPr, [((1R,2S,5R)-2-isopropyl-5-methyl-cyclohexanecarbonyl)-amino]-acetic acid n-propyl ester]	42	–	0	not effective	54	Gly-O-iPr>>Gly-O-nPr>Gly-O-Et	–
CCOC(=O)CNC(=O)[C@@H]1C[C@H](C)CC[C@H]1C(C)C [Gly-O-Et, [((1R,2S,5R)-2-isopropyl-5-methyl-cyclohexanecarbonyl)-amino]-acetic acid ethyl ester]	24	refreshing cooling sensation	0	not effective	15	Gly-O-iPr>>Gly-O-nPr>Gly-O-Et	mutagenicity, Ames test (TA1535 strain): weakly mutagenic; increase in duration of cooling on the ocular surface ([6]; concentration increased from 1 mg/mL to 2 mg/mL): 15 min; increase in duration of cooling on the ocular surface ([6]; concentration increased from 1 mg/mL to 5 mg/mL): 22 min
COC(=O)CNC(=O)[C@@H]1C[C@H](C)CC[C@H]1C(C)C [Gly-O-Me, [((1R,2S,5R)-2-isopropyl-5-methyl-cyclohexanecarbonyl)-amino]-acetic acid methyl ester]	10	–	0	–	5	–	–
